Assay [1] deals with NF639 cells. Briefly: Expression of EMT-related genes by qPCR after TGF-β. Type of assay: cell-based, mouse. The note with it: various concentrations of TGF-β, 48 h. How it is done:
RNA extraction and qRT-PCR. RNA was extracted using the TRIzol reagent (Invitrogen). 20% chloroform was added to each sample, vortexed briefly, and incubated at room temperature for 15 min. Samples were then centrifuged at high speed at 4° C. for 15 min. The aqueous phase was moved to a new tube and an equal volume of isopropanol was added. Samples were incubated at room temperature for 10 min, followed by centrifugation at high speed at 4° C. for 10 min. Pellets were washed in 95% ethanol, dried, and resuspended in nuclease-free water. cDNA was synthesized using iScript™ cDNA Synthesis Kit according to the manufacturer's instructions (Bio-Rad). qRT-PCR was performed with IQ™ SYBR® Green Supermix (Bio-Rad) in a CFX Connect Real-Time PCR Detection System (Bio-Rad).
The potential link between epithelial-mesenchymal transition (EMT) and ferroptosis was examined using cells generated from mammary tumors of MMTV-neu mice. NF639 cells, derived from mouse mammary tumors containing MMTV-neu, were treated with various concentrations of TGF-β for 48 h to induce EMT. TGF-β can enhance EMT in cells bearing overactive HER2/neu signaling. Expression of a panel of EMT-related genes was assayed by qPCR as indicated.

The test system of assay [2] is NF639 cells. As to the kind of experiment: Cystine deprivation-induced ferroptosis after TGF-β. Type of assay: cell-based, mouse. The settings on record: 6 ng/μL TGF-β 48 h; 3.2×10^5 cells/3.5 cm^2 well; cystine-free 12 h; untreated cells highly resistant. The method, then:
To determine the effect of TGF-β on cystine deprivation induced ferroptosis, NF639 cells were treated with or without 6 ng/μL TGF-β for 48 h, at which point they were plated at low density (0.8 cells×10^5/3.5 cm^2 well), grown overnight, and treated with media containing or lacking cystine, or lacking cystine with 1 μM ferrostatin-1 for 12 h. NF639 cells were also plated at a high density of 3.2×10^5 cells/3.5 cm^2 well, grown overnight and treated with media containing or lacking cystine, or lacking cystine with 1 μM ferrostatin-1 for 12 h. Cell death was measured by Sytox green staining coupled with flow cytometry.

In assay [3] the test system is HCT116 cells. As to the kind of experiment: Cell density-dependent induction of ferroptosis in HCT116 cells (cell death and lipid ROS by flow cytometry). Type of assay: cell-based, human. The settings on record: 5 μM RSL3; different cell density; cell death 24 h, lipid ROS 16 h. How it is done: Induction and inhibition of ferroptosis. To induce ferroptosis, cells with different density were seeded in 6-well plates. For cystine-starvation experiments, cells were washed with PBS twice and then cultured in cystine-free medium in the presence of 10% (v/v) dialyzed FBS for the indicated time. The ferroptosis inducing compounds erastin and RSL3 and the ferroptosis inhibitor Ferrostatin-1 were purchased from Sigma-Aldrich (St. Louis, Mo., USA).
Measurement of cell death, cell viability and lipid peroxidation. Cell death was analyzed by propidium iodide (Invitrogen, Waltham, Mass., USA) or SYTOX Green (Invitrogen) staining followed by microscopy or flow cytometry. For 3D spheroids, cell viability was determined using the CellTiter-Glo® 3D Cell Viability Assay (Promega, Madison, Wis., USA) according to the manufacturer's instructions. Viability was calculated by normalizing ATP levels to spheroids treated with normal full media. […]
To test erastin-induced ferroptosis, HCT116 cells with different cell density were treated with 30 μM erastin and quantification of cell death by propidium iodide (PI) staining followed by flow cytometry (after 30 h of erastin treatment). Lipid ROS production was assessed by C11-BODIPY staining followed by flow cytometry (after 24 h of erastin treatment). […]
For orientation: A flow cytometer gives signals particle by particle.

Assay [4] concerns HCT116 cells. As to the kind of experiment: Ferroptosis in confluent HCT116 cells expressing shEcad, shMerlin or shLats1/2. Type of assay: cell-based, human. The note with it: cell death 18 h, lipid ROS 14 h; versus shNT. How it is done: (§1) Measurement of cell death, cell viability and lipid peroxidation. Cell death was analyzed by propidium iodide (Invitrogen, Waltham, Mass., USA) or SYTOX Green (Invitrogen) staining followed by microscopy or flow cytometry. For 3D spheroids, cell viability was determined using the CellTiter-Glo® 3D Cell Viability Assay (Promega, Madison, Wis., USA) according to the manufacturer's instructions. Viability was calculated by normalizing ATP levels to spheroids treated with normal full media. To analyze lipid peroxidation, cells were stained with 5 μM BODIPY-C11 (Invitrogen) for 30 minutes at 37° C. followed by flow cytometric analysis.
The involvement of the Hippo signaling in the regulation of ferroptosis by cell-cell contact was also assessed. Cells depleted of Ecad, Merlin, or Lats were generated using shRNA technology. HCT116 cells were infected by lentiviruses expressing shRNA sequences targeting Ecad (shEcad), Merlin (shMerlin), or Lats1/2 (shLats1/2), as indicated. Knockdown efficiency was confirmed by Western blot (FIG. 2B). […] Cell death was measured at 30 h using SYTOX Green staining followed by flow cytometry. Lipid ROS was measured at 24 hours using C11-BODIPY staining coupled with flow cytometry. […] Cell death was measured at 18 h and lipid ROS was measured at 14 h (FIG. 11A).

For a further assay, the system named is MSTO-211H cells. Briefly: Ferroptosis in confluent MSTO-211H cells (shMerlin, shNcad). Type of assay: cell-based, human. How it is done: as §1
To confirm the ferroptosis-regulating role of Merlin in mesothelioma cells, the effect of Merlin knockdown on ferroptosis sensitivity was assessed. MSTO-211H cells were infected with lentiviruses expressing shMerlin. RNAi knockdown efficiency was confirmed by Western blot (FIG. 3F). Then, shNT or shMerlin MSTO-211H cells were cultured to high confluence, at which point they were treated with media containing or lacking cystine, with or without Fer-1 for 24 h. Cell death was measured by SYTOX Green staining followed by flow cytometry (FIG. 3G). To measure lipid reactive species, shNT or shMerlin MSTO-211H cells were treated for 18 h, at which point they were stained with 2 μM C11-BODIPY for lipid ROS measurement (FIG. 311). Confluent MSTO-211H cells expressing shNT or shMerlin were also treated with 1 μM RSL3 with or without […] Fer-1. Cell death (left, 24 h after treatment) and lipid ROS production (right, 16 h) were measured (FIG. 13B).
Therefore, the cell density dependence of ferroptosis is not limited to epithelial cells expressing Ecad. […] To assess the expression of N-cadherin in MSTO-211H mesothelioma cells, the cells were cultivated at different cell densities, and the levels of Ncad, p-YAP and total YAP were analyzed by Western blot. […] Therefore, the potential role of Ncad in ferroptosis was tested. MSTO-211H cells were infected with lentiviruses expressing Ncad shRNA (shNcad) and selected with puromycin.

Another assay deals with MEFs. As to the kind of experiment: Ferroptosis and lipid ROS in MEFs. Type of assay: cell-based, mouse. The method, then: as §1
Merlin-regulated ferroptosis in cell density dependent manner was also observed in MEFs, which are not of epithelial origin. Cell death of MEFs with different cell density induced by cystine starvation for 12 h was measured by PI staining (FIG. 15A), and flow cytometry (FIG. 15B). The effect of cystine starvation on lipid ROS production in MEFs cells with different cell density (6 h treatment) is also shown in FIG. 15B. […] As shown in FIGS. 15A-15D, increased cell density mitigated both cell death and lipid ROS generation induced by cystine starvation, erastin and RSL3 in MEFs.
MEFs also regulated the activity of YAP at high density in a Merlin-dependent manner. MEFs seeded at increasing density were probed for YAP localization by Immunofluorescence (FIG. 15E). The effect of Merlin was assessed by infecting MEFs with shMerlin lentivirus and selected with puromycin. […] As shown in FIGS. 15E-15F, with increasing cell confluence, there was an increase of YAP nuclear exclusion in MEFs, which was attenuated by Merlin knockdown.

For assay [5], the system named is HCT116 cells. As to the kind of experiment: RSL3-induced cell death in HCT116 cells overexpressing TFRC and/or ACSL4. It is filed as cell-based, human. The note with it: 2 μM RSL3, 24 h; SYTOX Green. How it is done:
To test whether TFRC and ACSL4 can directly enhance ferroptosis in confluent cells, TFRC and ACSL4 separately or in combination were overexpressed. HCT116 cells were transduced with retroviral particles containing mCherry-ACSL4, transfected with TFRC, or both. Expression was assayed by Western blot. Two bands were detected for mCherry-ACSL4, representing the full-length mCherry-ACSL4 and that with mCherry tag truncated (FIG. 17A). Additionally, cells were plated at the indicated density and treated with 2 μM RSL3 for 24 h. Cell death was measured by SYTOX Green staining coupled with flow cytometry.

Assay [6] relates to HCT116 cells. As to the kind of experiment: Ferroptosis in HCT116 cells expressing PAK-CAAX. It is filed as cell-based, human. The note with it: constitutively active PAK-CAAX versus inactive PAK^K298R-CAAX.

With TGF-β, the “expression of EMT-related genes” value in the assay on NF639 cells [1] was “upregulated the expression of multiple EMT-related genes”. The “cell death under cystine starvation at high cell density” value in the assay on NF639 cells [2] is recorded as “died under cystine starvation at high cell density”.
In the case of `COC(=O)c1ccc([C@@H]2c3[nH]c4ccccc4c3C[C@@H](C(=O)OC)N2C(=O)CCl)cc1` [RSL3], the “RSL3-induced ferroptosis (cell death, lipid ROS)” value in the assay on HCT116 cells [3] is reported as “induces HCT116 human colon cancer cells to undergo ferroptosis in a cell density-dependent manner”. Moreover, the “RSL3-induced cell death and lipid ROS after knockdown of Ecad, Merlin, Lats1/2” value with HCT116 cells [4] was “sensitized HCT116 cells to ferroptosis and increased lipid ROS accumulation”. For the same molecule, the “sensitivity of confluent shNcad cells to RSL3 (cell death)” value in the assay with MSTO-211H cells (1 μM RSL3, 16 h) was “sensitized these cells to ferroptosis”. For the same molecule, the “sensitivity of confluent shMerlin cells to RSL3 (cell death, lipid ROS)” value with MSTO-211H cells (1 μM RSL3, cell death 24 h, lipid ROS 16 h) is on record as “became sensitive”. In the assay on MEFs (1 μM RSL3, ferroptosis 8 h, lipid ROS 5 h), the “RSL3-induced ferroptosis and lipid ROS in MEFs at different densities” value is “ferroptosis (8 h) and lipid ROS production (5 h) was also observed”. In addition, in the assay with MEFs (RSL3 1 μM, 8 h), the “RSL3-induced cell death and lipid ROS in confluent Merlin RNAi MEFs” value is “increased cell death and lipid ROS production”. Besides, in the assay on HCT116 cells [5], the “RSL3-induced cell death, confluent cells co-expressing TFRC and ACSL4” value is given as “further enhanced cell death”; the “RSL3-induced cell death, confluent cells expressing either TFRC or ACSL4” value is on record as “partially sensitized to ferroptosis”. Besides, in the assay with HCT116 cells [6], the “RSL3-induced ferroptosis in PAK-CAAX expressing cells” value is recorded as “enhanced RSL3-induced ferroptosis”.
